In patent US5063242A (priority 1990, dated 1991):

System: carrageenan footpad edema in rats
Details: rat, in vivo, po, 5 mg/kg

## COc1ccc2c(c1)c(CC(=O)O)c(C)n2C(=O)c1ccc(Cl)cc1 [Indomethacin]
  % I: 48%
  Delta Edema (x ± SEM): 40 ± 2.5
